Each structure is given as a SMILES string.

This experiment deals with T1, 1-deoxy-D-xylulose-5-phosphate reductoisomerase (DXR) (Escherichia coli, UniProt P45568).
T1 sequence (P45568 1-398): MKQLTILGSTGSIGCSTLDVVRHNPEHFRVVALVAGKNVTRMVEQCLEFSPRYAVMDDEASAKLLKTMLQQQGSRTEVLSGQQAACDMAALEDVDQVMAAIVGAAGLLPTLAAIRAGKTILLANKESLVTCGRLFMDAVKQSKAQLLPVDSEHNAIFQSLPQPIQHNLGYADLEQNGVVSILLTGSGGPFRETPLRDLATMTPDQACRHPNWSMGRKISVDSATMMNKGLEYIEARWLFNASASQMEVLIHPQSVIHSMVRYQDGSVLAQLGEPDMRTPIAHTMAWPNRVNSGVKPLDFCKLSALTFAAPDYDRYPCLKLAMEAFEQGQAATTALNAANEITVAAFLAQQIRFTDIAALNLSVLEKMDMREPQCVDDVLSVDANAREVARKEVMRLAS
Briefly: recombinant enzyme assay, NADPH consumption at […] nm. The class given is biochemical.

As usually defined, the IC50 is the concentration that gives 50% inhibition. With `O=P(O)(O)CCCB(O)O` [compound 4, 3-Borono Propyl Phosphonic Acid], the IC50 amounted to 128 ± 3 µM.
